Test results reported in patent publication US20240270762A1, “PENICILLIN-BINDING PROTEIN INHIBITORS” (priority 2021, published 2024).
In brackets after ≈: the same amount, converted by molar mass.

Key:
[1] = molecular target: A. baumannii PBP2 (Acinetobacter baumannii, UniProt D0C8Z9); test: Bocillin-FL competition binding via gel filtration, A. baumannii PBP2
Method in brief: (§1)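 Competitive equilibrium binding with Bocillin-FL reporter: PBP pre-incubated with inhibitor dilutions, Bocillin-FL added, 15 min incubation. Labelled enzyme isolated by size-exclusion spin plates, fluorescence measured; EC50 obtained by fitting bound fraction against inhibitor concentration with a Hill-coefficient model.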

[2] = molecular target: T1, A. baumannii PBP1a (Acinetobacter baumannii, UniProt A0ABX6CK30); test: Bocillin-FL competition binding via gel filtration, A. baumannii PBP1a; conditions: competition binding assay using Bocillin-FL via gel filtration; read-out: A. baumannii PBP1a Potency
T1 sequence (A0ABX6CK30 1-851): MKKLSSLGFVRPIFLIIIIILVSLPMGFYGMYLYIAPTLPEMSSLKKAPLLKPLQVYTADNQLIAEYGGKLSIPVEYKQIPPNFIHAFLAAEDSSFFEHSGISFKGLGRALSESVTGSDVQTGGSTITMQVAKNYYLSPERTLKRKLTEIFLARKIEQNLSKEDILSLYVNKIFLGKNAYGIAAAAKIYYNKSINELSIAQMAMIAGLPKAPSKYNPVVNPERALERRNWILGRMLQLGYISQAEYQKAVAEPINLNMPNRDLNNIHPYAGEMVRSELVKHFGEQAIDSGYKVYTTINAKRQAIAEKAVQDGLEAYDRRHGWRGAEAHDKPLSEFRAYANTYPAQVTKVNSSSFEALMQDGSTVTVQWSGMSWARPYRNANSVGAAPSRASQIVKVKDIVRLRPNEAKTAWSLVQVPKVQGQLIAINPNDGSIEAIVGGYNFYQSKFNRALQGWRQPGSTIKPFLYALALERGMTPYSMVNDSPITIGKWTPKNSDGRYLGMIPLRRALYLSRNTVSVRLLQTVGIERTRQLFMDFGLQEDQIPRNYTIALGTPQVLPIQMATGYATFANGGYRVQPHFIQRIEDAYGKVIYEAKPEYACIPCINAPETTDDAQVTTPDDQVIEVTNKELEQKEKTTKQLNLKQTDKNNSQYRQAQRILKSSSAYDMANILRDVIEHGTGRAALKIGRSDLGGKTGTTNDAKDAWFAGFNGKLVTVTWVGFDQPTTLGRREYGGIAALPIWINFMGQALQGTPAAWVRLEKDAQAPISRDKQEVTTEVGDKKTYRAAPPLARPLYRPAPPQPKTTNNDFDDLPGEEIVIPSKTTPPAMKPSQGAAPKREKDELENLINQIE
Method in brief: as §1

[3] = system: A. baumannii CDC-0045; test: microbe, parasite or virus in culture; type: cell-based; conditions: Acinetobacter baumannii, CDC0045, read-out: MIC, A. baumannii CDC-0045
[4] = system: A. baumannii CDC-0033; test: microbe, parasite or virus in culture; type: cell-based; conditions: Acinetobacter baumannii, CDC0033, read-out: MIC, A. baumannii CDC-0033
[5] = system: P. aeruginosa CDC-0095; test: microbe, parasite or virus in culture; type: cell-based; conditions: Pseudomonas aeruginosa, CDC0095, read-out: Minimum inhibitory concentration, P. aeruginosa CDC-0095
[6] = molecular target: T2, PBP3 from Pseudomonas aeruginosa (PAO1) (Pseudomonas aeruginosa, UniProt G3XD46); test: Bocillin-FL fluorescence polarization competition binding, P. aeruginosa PBP3; conditions: Binding affinity to P. aeruginosa PBP3; fluorescence polarization competition binding assay using Bocillin-FL; read-out: P. aeruginosa PBP3 Potency
T2 construct: made in house
T2 sequence (G3XD46 whole entry): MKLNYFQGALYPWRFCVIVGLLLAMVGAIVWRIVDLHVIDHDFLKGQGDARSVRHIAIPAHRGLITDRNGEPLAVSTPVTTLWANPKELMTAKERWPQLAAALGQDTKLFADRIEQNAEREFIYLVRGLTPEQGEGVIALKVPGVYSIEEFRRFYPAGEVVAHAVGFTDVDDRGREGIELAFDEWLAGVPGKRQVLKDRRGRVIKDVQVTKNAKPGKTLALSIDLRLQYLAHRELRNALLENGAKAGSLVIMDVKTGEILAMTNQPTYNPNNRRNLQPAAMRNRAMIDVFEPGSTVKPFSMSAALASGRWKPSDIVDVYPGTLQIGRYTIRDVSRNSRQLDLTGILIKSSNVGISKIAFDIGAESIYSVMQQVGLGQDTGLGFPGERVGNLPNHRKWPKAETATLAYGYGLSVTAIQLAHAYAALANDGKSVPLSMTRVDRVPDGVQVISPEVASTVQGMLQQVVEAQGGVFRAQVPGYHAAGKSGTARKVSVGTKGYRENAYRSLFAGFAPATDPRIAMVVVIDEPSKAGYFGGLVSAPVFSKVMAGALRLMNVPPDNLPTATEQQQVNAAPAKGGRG
Method in brief: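 Purified PBP was preincubated with inhibitor (E. coli PBP3 1.5 μM, 30 min; P. aeruginosa PBP3 0.75 μM, A. baumannii PBP3 0.2 μM and PBP1a 1 μM, 15 min), then Bocillin-FL (0.1 μM; 0.05 μM for PBP1a) added and FP read up to 60 min. EC50 = 50% loss of bound probe.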

A. baumannii PBP2, sequence (D0C8Z9 whole entry): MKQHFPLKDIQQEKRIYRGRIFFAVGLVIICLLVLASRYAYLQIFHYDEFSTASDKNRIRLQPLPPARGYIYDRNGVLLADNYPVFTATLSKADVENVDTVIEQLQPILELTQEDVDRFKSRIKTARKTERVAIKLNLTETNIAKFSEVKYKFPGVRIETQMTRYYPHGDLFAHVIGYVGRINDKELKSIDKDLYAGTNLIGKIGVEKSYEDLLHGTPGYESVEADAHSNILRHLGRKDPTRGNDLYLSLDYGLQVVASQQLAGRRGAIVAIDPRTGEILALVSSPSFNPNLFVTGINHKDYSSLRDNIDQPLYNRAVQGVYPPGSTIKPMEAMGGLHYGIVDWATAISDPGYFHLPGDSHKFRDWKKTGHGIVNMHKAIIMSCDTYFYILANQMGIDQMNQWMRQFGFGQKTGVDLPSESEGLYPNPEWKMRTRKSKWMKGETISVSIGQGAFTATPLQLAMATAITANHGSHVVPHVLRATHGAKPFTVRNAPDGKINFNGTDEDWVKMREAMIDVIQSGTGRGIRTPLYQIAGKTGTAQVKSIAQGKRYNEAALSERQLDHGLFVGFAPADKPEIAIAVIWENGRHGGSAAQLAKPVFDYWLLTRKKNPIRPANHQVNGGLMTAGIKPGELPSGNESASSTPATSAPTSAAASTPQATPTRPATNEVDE

| Compound | EC50 [1] [µM] | EC50 [2] [µM] | MIC [3] [µg/mL] | MIC [4] [µg/mL] | MIC [5] [µg/mL] | IC50 [6] [µM] |
| --- | --- | --- | --- | --- | --- | --- |
| O=C(O)c1c(F)ccc2c1OB(O)[C@@H](NC(=O)C(NC(=O)N1CCN(C3CCN(C(=O)c4ccc(O)cc4O)CC3)C(=O)C1=O)c1cc(F)c(O)c(O)c1Cl)C2 (stereo partly drawn) [Example 476, (3R)-3-(2-(2-chloro-5-fluoro-3,4-dihydroxyphenyl)-2-(4-(1-(2,4-dihydroxybenzoyl)piperidin-4-yl)-2,3-dioxopiperazine-1-carboxamido)acetamido)-7-fluoro-2-hydroxy-3,4-dihydro-2H-benzo[e][1,2]oxaborinine-8-carboxylic acid] | < 10 | 10 to 50 | < 1 | < 1 | < 1 | < 10 |
| O=C(O)c1c(F)ccc2c1OB(O)[C@@H](NC(=O)C(NC(=O)N1CCN(CC3CCN(C(=O)Nc4cccc(O)c4)CC3)C(=O)C1=O)c1cc(F)c(O)c(O)c1Cl)C2 (stereo partly drawn) [Example 477, (3R)-3-(2-(2-chloro-5-fluoro-3,4-dihydroxyphenyl)-2-(4-((1-((3-hydroxyphenyl)carbamoyl)piperidin-4-yl)methyl)-2,3-dioxopiperazine-1-carboxamido)acetamido)-7-fluoro-2-hydroxy-3,4-dihydro-2H-benzo[e][1,2]oxaborinine-8-carboxylic acid] | < 10 | 10 to 50 | < 1 | 2 to 4 (≈ 2.45 to 4.91 µM) | < 1 | < 10 |
| O=C(O)c1c(F)ccc2c1OB(O)[C@@H](NC(=O)C(NC(=O)N1CCN(C3CCN(C(=O)Nc4cccc(O)c4F)CC3)C(=O)C1=O)c1cc(F)c(O)c(O)c1Cl)C2 (stereo partly drawn) [Example 478, (3R)-3-(2-(2-chloro-5-fluoro-3,4-dihydroxyphenyl)-2-(4-(1-((2-fluoro-3-hydroxyphenyl)carbamoyl)piperidin-4-yl)-2,3-dioxopiperazine-1-carboxamido)acetamido)-7-fluoro-2-hydroxy-3,4-dihydro-2H-benzo[e][1,2]oxaborinine-8-carboxylic acid] | 10 to 50 | 10 to 50 | < 1 | 8 to 16 (≈ 9.77 to 19.5 µM) | 2 to 4 (≈ 2.44 to 4.88 µM) | < 10 |
